target: SARS-CoV-2 S D614G (Severe acute respiratory syndrome coronavirus 2, UniProt P0DTC2, D614G); format: cell-based; settings: read-out: IC90, inhibition of S-mediated cell–cell fusion, SARS-CoV-2 D614G

In order of rising IC90:
1. Ac-DISQINASVVNIEYEIKKLEEVAKKLEESLIDLQEL-NH2 [QE]  70 ± 10 nM
2. Ac-PDVDLGDISQINASVVNIEYEIKKLEEVAKKLEESLIDLQEL-NH2 [QE-EXT]  90 ± 20 nM
3. Ac-SIDQINATFVDIEYEIKKLEEVAKKLEESYIDLKEL-NH2 [SK]  96 ± 20 nM
